The values below come from publication PMC11965169, “Flavin-containing siderophore-interacting protein of Shewanella putrefaciens DSM 9451 reveals common structural and functional aspects of ferric–siderophore reduction” (Journal of Biological Inorganic Chemistry, 2025).

In assay [1] the target is T1, SbSIP (siderophore-interacting protein, flavin-containing siderophore reductase) (Shewanella bicestrii, UniProt A0A220UGT4).
T1 construct: gene CF168_00510; Trx-His10 tag-free SbSIP; chains A and B, residues 1-3/247-251 and 1-5/249-251 not modelled
T1 sequence (A0A220UGT4 1-250): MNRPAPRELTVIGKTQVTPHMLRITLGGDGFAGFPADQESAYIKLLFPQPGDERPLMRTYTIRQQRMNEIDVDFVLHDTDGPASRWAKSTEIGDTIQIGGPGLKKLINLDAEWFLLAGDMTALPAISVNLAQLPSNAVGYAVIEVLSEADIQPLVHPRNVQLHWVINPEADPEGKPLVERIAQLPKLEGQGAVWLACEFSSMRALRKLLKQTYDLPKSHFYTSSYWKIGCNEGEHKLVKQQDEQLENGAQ
The experiment in a line: X-ray crystal structure, […] Å. The assay is classed as binding.

The target in assay [2] is T2, SbSIP (siderophore-interacting protein, flavin-containing siderophore reductase) (Shewanella bicestrii, UniProt A0A220UGT4).
T2 construct: gene CF168_00510
Kind of assay: […] NMR titration (slow exchange). The format is binding.

Assay [3] concerns the target T2, SbSIP (siderophore-interacting protein, flavin-containing siderophore reductase). Kind of assay: […] NMR titration (fast exchange, chemical shift perturbation). The assay is classed as binding.
Assay [4] shares this target. The experiment in a line: stopped-flow reduction of ferric siderophore by purified SbSIPsemi, […] nm. The format is biochemical.

As for `Cc1cc2nc3c(=O)[nH]c(=O)nc-3n(C[C@H](O)[C@H](O)[C@H](O)COP(=O)(O)OP(=O)(O)OC[C@H]3O[C@@H](n4cnc5c(N)ncnc54)[C@H](O)[C@@H]3O)c2cc1C` [FAD], the “X-ray crystal structure, 1.86 Å” value in assay [1] is “contained two SbSIP protein chains (A and B), each one bound to an FAD moiety”.

In turn, `NC(=O)C1=CN([C@@H]2O[C@H](COP(=O)(O)OP(=O)(O)OC[C@H]3O[C@@H](n4cnc5c(N)ncnc54)[C@H](O)[C@@H]3O)[C@@H](O)[C@H]2O)C=CC1` [NADH] had an equilibrium dissociation constant (Kd) in assay [2] of 17 ± 5 µM.

Take `NC(=O)C1=CN([C@@H]2O[C@H](COP(=O)(O)OP(=O)(O)OC[C@H]3O[C@@H](n4cnc5c(N)ncnc54)[C@H](OP(=O)(O)O)[C@@H]3O)[C@@H](O)[C@H]2O)C=CC1` [NADPH]: the dissociation constant Kd in assay [3] amounted to 107 ± 2 µM. Regarding Fe(III)–putrebactin, the “stopped-flow reduction of ferric siderophore by purified SbSIPsemi, 600 nm” value in assay [4] was 0.0031 ± 5 × 10^–5. Fe(III)–bisucaberin: the “stopped-flow reduction of ferric siderophore by purified SbSIPsemi, 600 nm” value in assay [4] is on record as 0.0014 ± 2 × 10^–4.
